Measurements taken from publication PMC7450057, “Enhancing intracellular accumulation and target engagement of PROTACs with reversible covalent chemistry” (Nature Communications, 2020).
Values joined by “and” are separate entries in the source; they are usually repeats but may differ in a detail not shown here. Equal entries are not always repeated.

Legend:
[1] = system: Rec-1; experiment: IC50 in MCL cell lines (Supplementary Table 2), Rec-1; settings: for IC50: Rec-1, triplicates; for Cell Viability (%): Rec-1 cells, replicate wells
[2] = system: Mino; experiment: IC50 in MCL cell lines (Supplementary Table 2), Mino; settings: for Cell Viability (%): Mino cells, replicate wells; for IC50: Mino, triplicates
[3] = molecular target: BTK (Mus musculus, UniProt P35991); experiment: BTK degradation in mouse B-cell lymphoma cell line derived from Eu-Myc mice; format: cell-based; design: endogenous in cells; host or cells: B cell lymphoma cell line derived from Eu-Myc mice; settings: Supplementary Figure 10, replicates, DMSO about 100
BTK, sequence (P35991 whole entry): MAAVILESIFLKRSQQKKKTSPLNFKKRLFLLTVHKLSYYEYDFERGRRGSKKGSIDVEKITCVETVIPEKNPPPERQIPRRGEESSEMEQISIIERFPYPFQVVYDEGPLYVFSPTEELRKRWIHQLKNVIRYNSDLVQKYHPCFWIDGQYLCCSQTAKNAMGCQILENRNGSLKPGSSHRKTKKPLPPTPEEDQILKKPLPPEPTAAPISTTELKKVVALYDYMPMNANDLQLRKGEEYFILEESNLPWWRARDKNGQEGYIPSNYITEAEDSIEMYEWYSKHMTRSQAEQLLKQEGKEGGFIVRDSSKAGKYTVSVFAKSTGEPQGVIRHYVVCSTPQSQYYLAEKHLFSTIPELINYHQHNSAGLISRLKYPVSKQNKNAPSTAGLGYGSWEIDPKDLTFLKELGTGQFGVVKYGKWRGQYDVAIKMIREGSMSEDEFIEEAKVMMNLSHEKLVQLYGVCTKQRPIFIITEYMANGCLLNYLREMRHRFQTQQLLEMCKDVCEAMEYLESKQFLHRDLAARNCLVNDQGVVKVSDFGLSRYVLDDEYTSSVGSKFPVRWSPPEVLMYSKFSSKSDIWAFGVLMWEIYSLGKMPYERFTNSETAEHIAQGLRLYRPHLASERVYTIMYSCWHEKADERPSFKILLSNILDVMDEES
Description: MOLM-14 cell line was obtained from Dr. Conneely at Baylor College of Medicine, and the Mino cells were purchased from the American Type Culture Collection (ATCC, Cat. No. CRL-3000). Both cell lines were cultured in RPMI 1640 medium (Thermo Fisher Scientific, Cat. No. MT10040CV) supplemented with 10% fetal bovine serum (GE Healthcare, Cat. No. SH30071.03) and 1% Pen/Strep (Thermo Fisher Scientific, Cat. No. 15140163). The wild-type and C481S BTK XLA cell lines were gifts from Dr. Woyach at The Ohio State University and were cultured in RPMI 1640 medium with 15% fetal bovine serum, 1% Pen/Strep, and 1.0 µg/ml puromycin (Thermo Fisher Scientific, Cat. No. A1113803). HEK 293T/17 cells were purchased from ATCC (Cat. No. CRL-11268) were maintained in DMEM (Thermo Fisher Scientific, Cat. No. MT10013CV) with 10% fetal bovine serum and 1% Pen-Strep. The B cell lymphoma cell line derived from Eu-Myc mice was a gift from Dr. Yulin Li at Houston Methodist Research Institute and cultured in RPMI 1640 medium supplemented with 15% (v/v) fetal bovine serum (FBS), 100 U/mL penicillin, 100 μg/mL streptomycin, and 0.05 mM beta-mercaptoethanol and puromycin (1 μg/mL). Cells were grown at 37 °C with 5% CO2.
The collected cells and spleen tissues were lysed in RIPA lysis buffer (50 mM Tris-HCl, pH 7.4, 150 mM NaCl, 1% NP-40, 0.5% sodium deoxycholate, 0.1% SDS) supplemented with Halt™ Protease and Phosphatase Inhibitor Cocktail (Thermo Fisher Scientific, Cat. No. PI78440) immediately before use. Lysates were centrifuged at 15,000 × g for 10 min at 4 °C and the supernatant was quantified for total protein concentration using the Pierce BCA Protein Assay (Thermo Fisher Scientific, Cat. No. 23225). Thirty micrograms of protein were loaded onto sodium dodecyl sulfate−polyacrylamide gel for electrophoresis (Bio-Rad) and transferred onto PVDF membranes (Millipore, Cat. No. IPVH00010). […] Imaging was performed using the ECL Prime chemiluminescent western blot detection reagents (GE Healthcare, Cat. No. RPN2232) by visualization of the blots to X-Ray film or with an Imager (Kindle Biosciences, Cat. No. D1001). All western blots were subsequently processed and quantified with Imager software. Protein level was normalized to β-actin or GAPDH loading controls.

[4] = molecular target: T1, full-length BTK protein (Homo sapiens, UniProt Q06187); experiment: BTK binding assay (Kd, Eurofins DiscoverX); settings: for Kd: full-length BTK, absence of DTT in the buffer, duplicates
T1 construct: Kd was measured using the full-length BTK protein by Eurofins DiscoverX; T7 phage fusion or DNA tag for qPCR (generic vendor protocol); purchased Eurofins DiscoverX
T1 sequence (Q06187 whole entry, the tested form may be a part): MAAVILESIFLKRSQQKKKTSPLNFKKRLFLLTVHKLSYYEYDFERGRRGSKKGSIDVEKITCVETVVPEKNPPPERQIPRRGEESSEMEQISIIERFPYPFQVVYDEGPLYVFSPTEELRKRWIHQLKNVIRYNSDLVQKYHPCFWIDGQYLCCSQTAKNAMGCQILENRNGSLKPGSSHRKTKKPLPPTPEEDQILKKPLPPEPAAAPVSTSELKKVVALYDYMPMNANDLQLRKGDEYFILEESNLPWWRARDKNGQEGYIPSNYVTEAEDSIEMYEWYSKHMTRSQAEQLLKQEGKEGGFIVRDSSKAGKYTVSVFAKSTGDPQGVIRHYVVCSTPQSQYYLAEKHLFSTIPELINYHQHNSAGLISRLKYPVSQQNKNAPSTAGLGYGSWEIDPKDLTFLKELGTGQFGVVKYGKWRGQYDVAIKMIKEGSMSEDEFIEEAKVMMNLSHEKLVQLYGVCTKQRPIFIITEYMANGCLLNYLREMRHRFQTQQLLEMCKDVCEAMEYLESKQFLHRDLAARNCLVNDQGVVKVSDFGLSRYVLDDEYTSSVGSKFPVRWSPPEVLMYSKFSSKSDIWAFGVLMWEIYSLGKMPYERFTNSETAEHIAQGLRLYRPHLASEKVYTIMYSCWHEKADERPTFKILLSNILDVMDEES
Description: The dissociation equilibrium constant Kd was measured using the full-length BTK protein by Eurofins DiscoverX according to the following protocol: kinase-tagged T7 phage strains were prepared in an E. coli host derived from the BL21 strain. E. coli were grown to log-phase and infected with T7 phage and incubated with shaking at 32 °C until lysis. The lysates were centrifuged and filtered to remove cell debris. The remaining kinases were produced in HEK-293 cells and subsequently tagged with DNA for qPCR detection. […] The liganded beads were blocked with excess biotin and washed with blocking buffer (SeaBlock (Pierce), 1% BSA, 0.05% Tween 20, 1 mM DTT) to remove unbound ligand and to reduce non-specific binding. […] Test compounds were prepared as 111X stocks in 100% DMSO. […] The compounds were then diluted directly into the assays such that the final concentration of DMSO was 0.9%. All reactions performed in polypropylene 384-well plate. Each was a final volume of 0.02 mL. […] The kinase concentration in the eluates was measured by qPCR. For kinase-binding constant determination, an 11-point 3-fold serial dilution of each test compound was prepared in 100% DMSO at 100x final test concentration and subsequently diluted to 1x in the assay (final DMSO concentration = 1%). […] Binding constants (Kd values) were calculated with a standard dose-response curve using the Hill equation: Response=Background+Signal−Background/1+KdHillSlope/Dose^HillSlope
The Hill Slope was set to −1. Curves were fitted using a non-linear least square fit with the Levenberg-Marquardt algorithm.

[5] = BTK_+DTT, compound concentration 0.00491 nM
[6] = BTK_+DTT, compound concentration 0.0147 nM
[7] = BTK_+DTT, compound concentration 0.0442 nM
[8] = BTK_+DTT, compound concentration 0.133 nM
[9] = BTK_+DTT, compound concentration 0.398 nM
[10] = BTK_+DTT, compound concentration 1.19 nM
[11] = BTK_+DTT, compound concentration 3.58 nM
[12] = BTK_+DTT, compound concentration 10.7 nM
[13] = BTK_+DTT, compound concentration 32.2 nM
[14] = BTK_+DTT, compound concentration 96.7 nM
[15] = BTK_+DTT, compound concentration 290 nM
[16] = BTK_-DTT, compound concentration 0.0152 nM
[17] = BTK_-DTT, compound concentration 0.0457 nM
[18] = BTK_-DTT, compound concentration 0.137 nM
[19] = BTK_-DTT, compound concentration 0.412 nM
[20] = BTK_-DTT, compound concentration 1.23 nM
[21] = BTK_-DTT, compound concentration 3.7 nM
[22] = BTK_-DTT, compound concentration 11.1 nM
[23] = BTK_-DTT, compound concentration 33.3 nM
[24] = BTK_-DTT, compound concentration 100 nM
[25] = BTK_-DTT, compound concentration 300 nM

`CN1C(=O)CCC(N2C(=O)c3cccc(NCC(=O)NCCCN(C)C(C)(C)C=C(C#N)C(=O)N4CCCC(n5nc(-c6ccc(Oc7ccccc7)cc6)c6c(N)ncnc65)C4)c3C2=O)C1=O` (stereo not shown) [RC-1-Me] was tested, and the IC50 [1] was > 5 µM, the “Cell Viability (%)” value ([1]; 1.25E-06 M) was 88.9713% and 84.187% and 87.0708% and the “Cell Viability (%)” value ([1]; 1.56E-07 M) was 102.885% and 100.999% and 103.498%. The “Cell Viability (%)” value ([1]; 2.50E-06 M) was 85.2061% and 81.3451% and 80.2365%, the “Cell Viability (%)” value ([1]; 3.13E-07 M) was 100.04% and 97.7301% and 97.0129% and the “Cell Viability (%)” value ([1]; 5.00E-06 M) was 70.5812% and 67.1387% and 67.0221%. For the same molecule, the “Cell Viability (%)” value ([1]; 6.25E-07 M) was 91.8342% and 92.6769% and 91.2574%, the “Cell Viability (%)” value ([1]; 7.81E-08 M) was 100.946% and 100.662% and 102.733% and the “Cell Viability (%)” value ([2]; 1.25E-06 M) was 62.8357% and 58.5114% and 61.2528%. The “Cell Viability (%)” value ([2]; 1.56E-07 M) was 87.7372% and 87.5805% and 85.7829%, the “Cell Viability (%)” value ([2]; 2.50E-06 M) was 55.4376% and 54.2347% and 53.6197% and the “Cell Viability (%)” value ([2]; 3.13E-07 M) was 79.9575% and 76.1954% and 74.7404%. For the same molecule, the “Cell Viability (%)” value ([2]; 5.00E-06 M) was 43.6522% and 45.138% and 46.9951%, the “Cell Viability (%)” value ([2]; 6.25E-07 M) was 66.0951% and 69.0683% and 66.9419% and the “Cell Viability (%)” value ([2]; 7.81E-08 M) was 88.6147% and 85.2411% and 92.7295%. It also gave an IC50 [2] of 3.3 µM.
`CN(CC=CC(=O)N1CCCC(n2nc(-c3ccc(Oc4ccccc4)cc3)c3c(N)ncnc32)C1)CCCNC(=O)CNc1cccc2c1C(=O)N(C1CCC(=O)NC1=O)C2=O` (stereo not shown) [IRC-1] was tested, and the “BTK quantification (anti-BTK / anti-β-actin)” value ([3]; 8 nM) was 93.1337 and 89.8918, the “BTK quantification (anti-BTK / anti-β-actin)” value ([3]; 40 nM) was 73.5656 and 73.5943 and the “BTK quantification (anti-BTK / anti-β-actin)” value ([3]; 200 nM) was 64.1549 and 63.4726. The Signal [4, 5] was 2.11E-05 and 2.14E-05, the Signal [4, 6] was 1.62E-05 and 1.97E-05 and the Signal [4, 7] was 2.15E-05 and 2.03E-05. The Signal [4, 8] was 2.11E-05 and 2.33E-05, the Signal [4, 9] was 1.86E-05 and 1.95E-05 and the Signal [4, 10] was 1.43E-05 and 1.52E-05. For the same molecule, the Signal [4, 11] was 1.06E-05 and 1.08E-05, the Signal [4, 12] was 5.42E-06 and 5.34E-06 and the Signal [4, 13] was 1.75E-06 and 1.73E-06. The Signal [4, 14] was 3.47E-07 and 3.72E-07, the Signal [4, 15] was 8.87E-08 and 9.98E-08 and the Signal [4, 16] was 1.52E-05 and 1.19E-05. The Signal [4, 17] was 1.62E-05 and 1.68E-05, the Signal [4, 18] was 1.78E-05 and 1.76E-05 and the Signal [4, 19] was 1.29E-05 and 1.60E-05. For the same molecule, the Signal [4, 20] was 1.07E-05 and 1.11E-05, the Signal [4, 21] was 7.15E-06 and 6.34E-06 and the Signal [4, 22] was 3.52E-06 and 2.70E-06. The Signal [4, 23] was 1.15E-06, the Signal [4, 24] was 3.02E-07 and 3.08E-07 and the Signal [4, 25] was 1.03E-07 and 9.31E-08. For the same molecule, the Kd [4] was 0.003 µM.
For `CC(C)(C)C=C(C#N)C(=O)N1CCCC(n2nc(-c3ccc(Oc4ccccc4)cc3)c3c(N)ncnc32)C1` (stereo not shown) [RC-Ctrl], the IC50 [1] was > 5 µM, the “Cell Viability (%)” value ([1]; 1.25E-06 M) was 84.1542% and 83.3085% and 82.8961% and the “Cell Viability (%)” value ([1]; 1.56E-07 M) was 92.1928% and 91.3082% and 92.4737%. For the same molecule, the “Cell Viability (%)” value ([1]; 2.50E-06 M) was 79.0591% and 78.7184% and 77.0987%, the “Cell Viability (%)” value ([1]; 3.13E-07 M) was 90.2055% and 91.6728% and 91.1737% and the “Cell Viability (%)” value ([1]; 5.00E-06 M) was 67.2403% and 66.8996% and 66.3946%. The “Cell Viability (%)” value ([1]; 6.25E-07 M) was 86.0757% and 86.1055% and 87.7342%, the “Cell Viability (%)” value ([1]; 7.81E-08 M) was 88.6576% and 86.9542% and 93.923% and the “Cell Viability (%)” value ([2]; 1.25E-06 M) was 64.9212% and 67.7956% and 65.2142%. For the same molecule, the “Cell Viability (%)” value ([2]; 1.56E-07 M) was 72.1676% and 75.0045% and 70.0395%, the “Cell Viability (%)” value ([2]; 2.50E-06 M) was 62.0161% and 61.5033% and 61.0381% and the “Cell Viability (%)” value ([2]; 3.13E-07 M) was 62.4012% and 64.8258% and 70.1741%. The “Cell Viability (%)” value ([2]; 5.00E-06 M) was 55.6234% and 57.3306% and 56.4139%, the “Cell Viability (%)” value ([2]; 6.25E-07 M) was 64.669% and 69.1433% and 66.0679% and the “Cell Viability (%)” value ([2]; 7.81E-08 M) was 69.6595% and 74.2003% and 68.2948%. For the same molecule, the IC50 [2] was > 5 µM, the Signal [4, 5] was 2.09E-05 and 2.12E-05 and the Signal [4, 6] was 2.23E-05 and 2.05E-05. For the same molecule, the Signal [4, 7] was 2.23E-05 and 2.20E-05, the Signal [4, 8] was 2.05E-05 and the Signal [4, 9] was 2.13E-05 and 2.22E-05. For the same molecule, the Signal [4, 10] was 1.80E-05 and 1.97E-05, the Signal [4, 11] was 1.78E-05 and 1.71E-05 and the Signal [4, 12] was 1.50E-05 and 1.39E-05. The Signal [4, 13] was 7.62E-06 and 7.96E-06, the Signal [4, 14] was 2.20E-06 and 2.08E-06 and the Signal [4, 15] was 4.82E-07 and 5.26E-07. For the same molecule, the Signal [4, 16] was 1.69E-05 and 1.12E-05, the Signal [4, 17] was 1.66E-05 and 1.75E-05 and the Signal [4, 18] was 1.87E-05 and 1.52E-05. For the same molecule, the Signal [4, 19] was 1.34E-05 and 1.41E-05, the Signal [4, 20] was 1.48E-05 and 1.35E-05 and the Signal [4, 21] was 1.31E-05 and 1.42E-05. The Signal [4, 22] was 6.46E-06 and 6.66E-06, the Signal [4, 23] was 2.78E-06 and 2.85E-06 and the Signal [4, 24] was 8.37E-07 and 7.44E-07. The Signal [4, 25] was 2.56E-07 and 2.49E-07 and the Kd [4] was 0.0091 µM.
